In PMC11187126, “Structure and dynamics of the pyroglutamylated RF-amide peptide QRFP receptor GPR103” (Nature Communications, 2024):
Read-outs that look alike come from different tables or passages of the source. No end group written: not given here.

Target: T1, GPR103 W286^6.48A (Homo sapiens, UniProt Q96P65, W286A)
T1 construct: we used human full-length QRFPR-encoding plasmids; expressed in transfected cells; host or cells: HEK293 cells (HEK293A in the flow cytometry section), pCAGGS vector
T1 sequence (Q96P65 1-431 W286A): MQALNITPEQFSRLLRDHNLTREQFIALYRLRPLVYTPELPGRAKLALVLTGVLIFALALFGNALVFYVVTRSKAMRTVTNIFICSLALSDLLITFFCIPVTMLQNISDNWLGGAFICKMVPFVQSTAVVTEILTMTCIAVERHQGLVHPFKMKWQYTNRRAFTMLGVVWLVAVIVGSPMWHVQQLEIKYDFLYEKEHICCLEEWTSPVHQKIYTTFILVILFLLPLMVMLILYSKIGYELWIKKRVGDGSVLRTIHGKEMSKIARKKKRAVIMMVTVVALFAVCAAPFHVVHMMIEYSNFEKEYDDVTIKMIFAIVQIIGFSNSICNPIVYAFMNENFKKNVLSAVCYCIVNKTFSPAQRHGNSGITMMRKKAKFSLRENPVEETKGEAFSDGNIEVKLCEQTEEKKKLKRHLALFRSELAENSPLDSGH
Test: TGFα shedding assay; Exp. level WT (1:20)
Assay type: cell-based

Emax (Exp. #1): 72.87 % WT
Emax (Exp. #2): 70.40 % WT
Emax (Exp. #3): 78.23 % WT
Emax (mean, read-out: Emax): 73.8%
EC50 (n = 3): 1120 nM
Emax (n = 3, read-out: Emax): 75.7 ± 1.9%
Substance: TSGPLGNLAEELNGYSRKKGGFSFRF-NH2 [QRFP26]
